Reference: patent EP4596536A1 (Shanghai de Novo Pharmatech Co., Ltd., priority 2022, dated 2024)

target: T1, TLR8 (Homo sapiens, UniProt Q9NR97); assay: HEK-BLUE-hTLR8 cell SEAP reporter assay (Quanti-Blue); format: cell-based; conditions: HEK-BLUE-hTLR8 cells, 0.5 nM to 15 µM, 24 hours
T1 construct: host or cells: HEK293 (HEK-BLUE-hTLR8)
T1 sequence (Q9NR97 27-1041): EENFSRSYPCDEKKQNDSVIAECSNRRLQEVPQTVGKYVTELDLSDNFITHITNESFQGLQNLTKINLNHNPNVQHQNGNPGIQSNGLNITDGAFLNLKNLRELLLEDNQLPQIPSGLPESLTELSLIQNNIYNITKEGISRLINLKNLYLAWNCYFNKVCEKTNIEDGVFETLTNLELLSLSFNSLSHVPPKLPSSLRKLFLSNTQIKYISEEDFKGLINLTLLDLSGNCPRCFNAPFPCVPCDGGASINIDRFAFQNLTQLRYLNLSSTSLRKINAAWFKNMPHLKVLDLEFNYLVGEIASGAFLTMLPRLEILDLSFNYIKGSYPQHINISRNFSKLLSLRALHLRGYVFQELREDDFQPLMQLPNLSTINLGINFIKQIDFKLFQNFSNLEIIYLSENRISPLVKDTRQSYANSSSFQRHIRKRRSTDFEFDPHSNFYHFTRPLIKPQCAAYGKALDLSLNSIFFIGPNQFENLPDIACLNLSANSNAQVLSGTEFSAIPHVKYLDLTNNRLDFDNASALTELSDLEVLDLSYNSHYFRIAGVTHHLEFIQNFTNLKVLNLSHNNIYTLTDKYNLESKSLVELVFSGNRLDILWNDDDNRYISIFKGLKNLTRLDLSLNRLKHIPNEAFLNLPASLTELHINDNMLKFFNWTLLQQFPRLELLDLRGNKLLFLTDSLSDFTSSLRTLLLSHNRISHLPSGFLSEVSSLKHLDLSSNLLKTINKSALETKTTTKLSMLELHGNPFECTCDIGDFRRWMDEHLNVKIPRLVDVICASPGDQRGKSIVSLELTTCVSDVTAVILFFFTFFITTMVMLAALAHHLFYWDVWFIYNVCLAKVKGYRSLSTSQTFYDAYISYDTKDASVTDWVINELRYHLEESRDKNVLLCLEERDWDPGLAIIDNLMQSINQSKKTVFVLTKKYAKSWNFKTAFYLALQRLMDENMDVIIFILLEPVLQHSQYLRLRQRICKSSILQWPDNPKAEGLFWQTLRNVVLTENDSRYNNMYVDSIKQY
Experimental: In this experiment, the biological activity of TLR7 and TLR8 in the compound of formula I was detected using cell tests. This method was conducted in human embryonic kidney cells (HEK293) expressing TLR family members such as TLR4, TLR7, TLR8 or TLR9. TLR agonists activate TLRs, triggering the activation of downstream NF-kB, which in turn activates the secreted embryonic alkaline phosphatase (SEAP) reporter gene. The activity of SEAP was detected using the Quanti-Blue (InvivoGen) reagent, thereby reflecting the activities of TLR7 and TLR8 agonists.
The detailed experimental method was as follows: HEK-BLUE-hTLR7 and HEK-BLUE-hTLR8 cell lines were purchased from Invivogen Company and cultured in DMEM medium containing 4.5 g/L glucose (Sigma-Aldrich) and 10% fetal bovine serum under the conditions of temperature 37°C, humidity 95% and 5% CO2.
The compound was tested at a concentration ranging from 0.5 nM to 15 µM over a total of 10 concentration gradients. TLR7 or TLR8 agonists with known activity were added as positive controls, and 1 µL of DMSO was added as a negative control.
The cells were treated as follows: the cells were removed from the culture dish and centrifuged to remove the medium, and resuspended in a T-150 bottle with 10 mL of preheated PBS, 12 mL of preheated medium was added, and the cells were gently pipetted up and down and counted under a microscope. A 200,000/mL single-cell suspension was immediately prepared with medium and added to a 96-well plate at 200 µL/well (40,000/well). The final concentration of DMSO was 0.5%.
The compound was added and incubated in an incubator at 37°C, 5% CO2 for 24 hours.
A supernatant at 20 µL/well was aspirated into 180 µL of preheated Quanti-Blue at 37°C, incubated at 37°C for 1.5 hours, and detected for the absorbance (OD value) with a spectrophotometer at 650 nm. The formula for calculating the agonistic effect is as follows:
Effect % = (average OD value of the drug-administered group - average OD value of the DMSO group) / (average OD value of the positive drug group - average OD value of the DMSO group) × 100
Graphpad software was used to fit the concentration-effect curve, and EC50 was calculated. The test results are shown in Table 15 (A denotes < 250 nM, B denotes 250 nM-1 µM, C denotes 1 µM-2 µM, D denotes > 2 µM, and - denotes not listed or not tested): Table 15

Compound	EC50 [nM]
(S)-1-((1-(3-(1-(2-amino-4-((2-hydroxyethyl)(propyl)carbamoyl)-3H-benzo[b]azepin-8-yl)cyclopropyl-1-amido)-7,8-dihydro-1,6-naphthyridin-6(5H)-yl)-1-oxo-5-ureidopentan-2-yl)carbamoylamino)cyclobutyl-1-carboxylic acid [Example 35]	250 to 1000
CCCN(CCO)C(=O)C1=Cc2ccc(C3(C(=O)NCc4cncc(N)c4)CC3)cc2N=C(N)C1 [Compound 22, 2-amino-8-(1-(((5-aminopyridin-3-yl)methyl)carbamoyl)cyclopropyl)-N-(2-hydroxyethyl)-N-propyl-3H-benzo[b]azepine-4-formamide]	250 to 1000
CCCN(CCC)C(=O)C1=Cc2c(F)cc(C3(C(=O)Nc4cncc(CN)c4)CC3)cc2N=C(N)C1 [Compound 13, 2-amino-8-(1-((5-(aminomethyl)pyridin-3-yl)carbamoyl)cyclopropyl)-6-fluoro-N,N-dipropyl-3H-benzo[b]azepine-4-formamide]	< 250
CCCN(OCC)C(=O)C1=Cc2ccc(C3(C(=O)Nc4cnc5c(c4)CN(C(=O)CCOCCOCCOCCOCCOCCOCCNC(=O)CCN4C(=O)C=CC4=O)CC5)CC3)cc2N=C(N)C1 [II-66, 2-amino-8-(1-((6-(1-(2,5-dioxo-2,5-dihydro-1H-pyrrol-1-yl)-3-oxo-7,10,13,16,19,22-hexaoxa-4-azapentacosan-25-acyl)-5,6,7,8-tetrahydro-1,6-naphthyridin-3-yl)carbamoyl)cyclopropyl)-N-ethoxy-N-propyl-3H-benzo[b]azepine-4-formamide]	250 to 1000
CCCN(OCC)C(=O)C1=Cc2ccc(C3(C(=O)Nc4cnc5c(c4)CNCC5)CC3)cc2N=C(N)C1 [Compound 23, 2-amino-N-ethoxy-N-propyl-8-(1-((5,6,7,8-tetrahydro-1,6-naphthyridin-3-yl)carbamoyl)cyclopropyl)-3H-benzo[b]azepine-4-formamide]	< 250
CCCN(CCO)C(=O)C1=Cc2ccc(C3(C(=O)Nc4cnc5c(c4)CN(C(=O)CNC(=O)[C@H](Cc4ccccc4)NC(=O)CNC(=O)CNC(=O)CCCCCN4C(=O)C=CC4=O)CC5)CC3)cc2N=C(N)C1	250 to 1000
CCCN(CCO)C(=O)C1=Cc2ccc(C3(C(=O)NCc4cccc(N)c4)CC3)cc2N=C(N)C1 [Compound 18, 2-amino-8-(1-((3-aminobenzyl)carbamoyl)cyclopropyl)-N-(2-hydroxyethyl)-N-propyl-3H-benzo[b]azepine-4-formamide]	< 250
CCCN(CCO)C(=O)C1=Cc2ccc(C3(C(=O)Nc4cnc5c(c4)CN(C(=O)CNC(=O)CCOCCOCCNC(=O)CN4C(=O)C=CC4=O)CC5)CC3)cc2N=C(N)C1 [II-46, 2-amino-8-(1-((6-(1-(2,5-dioxo-2,5-dihydro-1H-pyrrol-1-yl)-2,12-dioxo-6,9-dioxa-3,13-diazapentadecan-15-acyl)-5,6,7,8-tetrahydro-1,6-naphthyridin-3-yl)carbamoyl)cyclopropyl)-N-(2-hydroxyethyl)-N-propyl-3H-benzo[b]azepine-4-formamide]	< 250
CCCN(CCO)C(=O)C1=Cc2ccc(C3(C(=O)Nc4cnc5c(c4)CN(C(=O)CCOCCOCCOCCOCCOCCOCCNC(=O)CCN4C(=O)C=CC4=O)CC5)CC3)cc2N=C(N)C1 [II-12, 2-amino-8-(1-((6-(1-(2,5-dioxo-2,5-dihydro-1H-pyrrol-1-yl)-3-oxo-7,10,13,16,19,22-hexaoxa-4-azapentacosan-25-acyl)-5,6,7,8-tetrahydro-1,6-naphthyridin-3-yl)carbamoyl)cyclopropyl)-N-(2-hydroxyethyl)-N-propyl-3H-benzo[b]azepine-4-formamide]	250 to 1000
CCCN(CCO)C(=O)C1=Cc2c(F)cc(C3(C(=O)Nc4cncc(CN)c4)CC3)cc2N=C(N)C1 [Compound 12, 2-amino-8-(1-((5-(aminomethyl)pyridin-3-yl)carbamoyl)cyclopropyl)-6-fluoro-N-(2-hydroxyethyl)-N-propyl-3H-benzo[b]azepine-4-formamide]	< 250
CCCN(CCO)C(=O)C1=Cc2ccc(C3(C(=O)Nc4cnc5c(c4)CN(C(=O)CCOCCOCCOCCOCCOCCOCCNC(=O)[C@H](CCCNC(N)=O)NC(=O)[C@@H](NC(=O)CCCCCN4C(=O)C=CC4=O)C(C)C)CC5)CC3)cc2N=C(N)C1 [II-18, 2-amino-8-(1-((6-((24S,27S)-34-(2,5-dioxo-2,5-dihydro-1H-pyrrol-1-yl)-27-isopropyl-23,26,29-trioxo-24-(3-ureidopropyl)-4,7,10,13,16,19-hexaoxa-22,25,28-triazatetratriacontanacyl)-5,6,7,8-tetrahydro-1,6-naphthyridin-3-yl)carbamoyl)cyclopropyl)-N-(2-hydroxyethyl)-N-propyl-3H-benzo[b]azepine-4-formamide]	250 to 1000
CCCN(CCC)C(=O)C1=Cc2ccc(C3(C(=O)Nc4ccc5c(c4)CNCC5)CC3)cc2N=C(N)C1 [Compound 15, 2-amino-N,N-dipropyl-8-(1-((1,2,3,4-tetrahydroisoquinolin-7-yl)carbamoyl)cyclopropyl)-3H-benzo[b]azepine-4-formamide]	< 250

More lines, now with the values ahead:

EC50 [nM]	Compound
250 to 1000	CCCN(CCO)C(=O)C1=Cc2ccc(C3(C(=O)Nc4cnc5c(c4)CN(C(=O)[C@H](CCCNC(N)=O)NC(=O)[C@@H](NC(=O)CCCCCN4C(=O)C=CC4=O)C(C)C)CC5)CC3)cc2N=C(N)C1 [II-19, 2-amino-8-(1-((6-((S)-2-((S)-2-(6-(2,5-dioxo-2,5-dihydro-1H-pyrrol-1-yl)hexanoylamino)-3-methylbutanoylamino)-5-ureidopentanoyl)-5,6,7,8-tetrahydro-1,6-naphthyridin-3-yl)carbamoyl)cyclopropyl)-N-(2-hydroxyethyl)-N-propyl-3H-benzo[b]azepine-4-formamide]
250 to 1000	CCCN(CCO)C(=O)C1=Cc2ccc(C3(C(=O)Nc4cnc5c(c4)CN(C(=O)CCOCCOCCNC(=O)OCc4ccc(NC(=O)[C@H](CCCNC(N)=O)NC(=O)[C@@H](NC(=O)CCCCCN6C(=O)C=CC6=O)C(C)C)cc4)CC5)CC3)cc2N=C(N)C1 [II-104]
250 to 1000	CCCN(CCO)C(=O)C1=Cc2c(F)cc(C3(C(=O)Nc4cncc(CNC(=O)CNC(=O)CCOCCOCCNC(=O)CN5C(=O)C=CC5=O)c4)CC3)cc2N=C(N)C1 [II-64, 2-amino-8-(1-((5-(17-(2,5-dioxo-2,5-dihydro-1H-pyrrol-1-yl)-3,6,16-trioxo-9,12-dioxa-2,5,15-triazaheptadecyl)pyridin-3-yl)carbamoyl)cyclopropyl)-N-(2-hydroxyethyl)-6-fluoro-N-propyl-3H-benzo[b]azepine-4-formamide]
